Source: patent US20080039629A1, “Benzothniazole compositions and their use as ubiquition ligation inhibitors” (RIGEL PHARMACEUTICALS, INC., priority 2003, published 2008)

Molecular target: T1, E1 and His-E2 Ubch10 (Homo sapiens, UniProt P22314)
T1 construct: host or cells: E. coli (His-Ubch10); Sf9 insect cells (E1)
T1 sequence (P22314 1-1058): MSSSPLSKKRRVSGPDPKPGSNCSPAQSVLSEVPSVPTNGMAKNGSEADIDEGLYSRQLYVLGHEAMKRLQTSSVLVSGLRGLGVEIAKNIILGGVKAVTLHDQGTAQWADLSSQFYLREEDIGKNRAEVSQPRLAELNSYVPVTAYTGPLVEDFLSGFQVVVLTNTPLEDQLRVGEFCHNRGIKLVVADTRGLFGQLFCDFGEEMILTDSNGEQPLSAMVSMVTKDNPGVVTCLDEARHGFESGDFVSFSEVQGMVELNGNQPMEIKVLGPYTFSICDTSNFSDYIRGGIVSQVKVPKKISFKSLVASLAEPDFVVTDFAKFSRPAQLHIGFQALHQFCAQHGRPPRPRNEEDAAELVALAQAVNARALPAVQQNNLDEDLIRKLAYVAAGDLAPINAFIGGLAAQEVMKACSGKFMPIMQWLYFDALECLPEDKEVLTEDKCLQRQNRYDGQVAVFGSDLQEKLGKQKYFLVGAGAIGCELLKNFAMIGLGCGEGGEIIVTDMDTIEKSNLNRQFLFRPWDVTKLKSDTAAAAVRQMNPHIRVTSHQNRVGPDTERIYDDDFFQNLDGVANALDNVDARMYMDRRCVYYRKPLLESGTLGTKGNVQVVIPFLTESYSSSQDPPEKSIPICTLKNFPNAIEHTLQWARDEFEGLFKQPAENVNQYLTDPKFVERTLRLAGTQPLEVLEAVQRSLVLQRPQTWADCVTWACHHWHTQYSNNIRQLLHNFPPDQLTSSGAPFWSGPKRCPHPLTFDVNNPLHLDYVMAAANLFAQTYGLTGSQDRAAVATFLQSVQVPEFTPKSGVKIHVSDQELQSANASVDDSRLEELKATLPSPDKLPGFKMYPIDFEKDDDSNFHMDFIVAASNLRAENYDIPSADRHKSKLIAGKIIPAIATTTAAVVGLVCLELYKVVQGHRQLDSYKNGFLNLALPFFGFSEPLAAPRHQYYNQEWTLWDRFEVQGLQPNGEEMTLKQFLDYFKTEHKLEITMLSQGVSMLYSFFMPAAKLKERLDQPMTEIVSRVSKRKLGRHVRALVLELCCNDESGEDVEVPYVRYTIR
Test: E1 to E2 transfer assay, His-E2 Ubch10, 1.0 μM ATP (low ATP)
Assay type: biochemical
Settings: Table 5, ATP inhibition properties; inhibition measured using IC50 values
From the text: Biological assays for determining the transfer of ubiquitin from the E1 activating agent to the E2 conjugating agent are described in U.S. patent application Ser. Nos. 09/542,497 and 09/826,312 as well as in the PCT Application WO 01/75145, all of which are incorporated by reference in their entirety. The following assay example illustrates one way by which the ubiquitin ligase inhibitory activity of the compounds of the invention can be assayed. This assay example is not meant to limit in any way the use of the compounds of the invention as ubiquitin ligase inhibitors.
The attachment of a ubiquitin moiety to the E2 conjugating agent was assayed using Flag-ubiquitin that was purified from E. coli, E2 Ubch10 that was purified as a His-Ubch10 from E. coli, and E1 that was purified from Sf9 insect cells (Affiniti Research Products, Exeter, U.K.). The wells of a Nickel-substrate 96-well plate (Pierce Chemical) were blocked with 100 μl of 1% casein/phosphate buffered saline (PBS) for 1 hour at room temperature. The blocked Nickel-substrate plate was then washed three times with 200 μl of PBST (0.1% Tween-20 in PBS). Subsequently, Flag-ubiquitin reaction solution was added to each well so that the final concentration was 62.5 mM Tris pH 7.5, […], 0.75 mM DTT, 1.0 μM ATP (low ATP), and 100 ng Flag-ubiquitin. The final reaction solution volume was fixed to 80 μl with Millipore-filtered water. To this was added the following: a ubiquitin agent inhibitor in 10 μl of DMSO, 10 μl of E1 and His-E2 Ubch10 in 20 mM Tris buffer, pH 7.5, and 5% glycerol so that there was 10 ng/well of E1 and 20 ng/well of His-E2 Ubch10. The reaction was then allowed to proceed at room temperature for 1 hour.
After 1 hour, the wells were washed three times with 200 μl of PBST and the amount of E2-ubiquitin complex was measured. For measuring the amount of the E2-ubiquitin complex, 100 μl of Mouse anti-flag diluted 1:10,000 (Sigma Aldrich Fluka Chemicals, St. Louis, Mo.) and anti-mouse HRP diluted 1:15,000 (Jackson Immunoresearch labs, West Grove, Pa.) in PBST were added to each well and allowed to incubate at room temperature for another hour. The wells were then washed three times with 200 μl of PBST and 100 μl of luminol substrate (⅕ dilution) was added. The luminescence of each well was then measured using a […] to calculate the amount of E2-ubiquitin complex. This procedure was repeated using His-E2 Ubch5C instead of His-E2 Ubch10.
The table below illustrates the inhibitory properties of the pharmaceutical compostions of the invention comprising the compounds listed in the table using the assays described above. Inhibition was measured using IC50 values.

Question: Which UBC10 does the source give for CCc1ccc(C(=O)Nc2nc3ccc(C)cc3s2)cc1 [Compound 78, 4-ethyl-N-(6-methylbenzo[d]thiazol-2-yl)benzamide] here?
Answer: −− (−− indicates marginal or no inhibition detected with this assay)

Question: Which UBC10 does the source give for COC(=O)c1ccc(C(=O)Nc2nc3ccc(OC)cc3s2)cc1 [Compound 26, methyl 4-((6-methoxybenzo[d]thiazol-2-yl)carbamoyl)benzoate] here?
Answer: ++ (++ indicates inhibition at 50 μM or or less)

Question: With C=C(C)C(=O)Nc1ccc(C(=O)Nc2nc3ccc(OC)cc3s2)cc1 [Compound 15, 4-methacrylamido-N-(6-methoxybenzo[d]thiazol-2-yl)benzamide] as the compound, how does the UBC10 read?
Answer: ++ (++ indicates inhibition at 50 μM or or less)

Question: For CCOc1ccc2nc(NC(=O)c3ccc(CC)cc3)sc2c1 [Compound 91, N-(6-ethoxybenzo[d]thiazol-2-yl)-4-ethylbenzamide], which UBC10 is on record?
Answer: −− (−− indicates marginal or no inhibition detected with this assay)

Question: How did the UBC10 turn out when O=C(Nc1nc2ccccc2s1)c1ccc(Br)cc1 [Compound 172, N-(benzo[d]thiazol-2-yl)-4-bromobenzamide] was run?
Answer: −− (−− indicates marginal or no inhibition detected with this assay)

Question: For COc1ccc2nc(NC(=O)NC34CC5CC(CC(C5)C3)C4)sc2c1 [Compound 97, N-1-adamantyl-N′-(6-methoxy-1,3-benzothiazol-2-yl)urea], which UBC10 is on record?
Answer: ++ (++ indicates inhibition at 50 μM or or less)

Question: COc1ccc2nc(NC(=O)C3CCCN3S(=O)(=O)c3ccc(C)cc3)sc2c1 (centres unmarked) [Compound 37, N-(6-methoxybenzo[d]thiazol-2-yl)-1-tosylpyrrolidine-2-carboxamide] was tested. Which UBC10 did it give?
Answer: −− (−− indicates marginal or no inhibition detected with this assay)

Question: With COc1ccc2nc(NC(=O)c3ccc(Cl)cc3)sc2c1 [Compound 30, 4-chloro-N-(6-methoxybenzo[d]thiazol-2-yl)benzamide] as the compound, how does the UBC10 read?
Answer: ++ (++ indicates inhibition at 50 μM or or less)

Question: CCOC(=O)c1ccc(NC(=O)Nc2nc3ccc(OCC)cc3s2)cc1 [Compound 136, ethyl 4-(3-(6-ethoxybenzo[d]thiazol-2-yl)ureido)benzoate] was tested. Which UBC10 did it give?
Answer: −− (−− indicates marginal or no inhibition detected with this assay)

Question: With O=C(Nc1nc2ccccc2s1)c1ccccc1Br [Compound 159, N-(benzo[d]thiazol-2-yl)-2-bromobenzamide] as the compound, how does the UBC10 read?
Answer: ++ (++ indicates inhibition at 50 μM or or less)

Question: COc1ccc2nc(NC(=O)[C@H]3Cc4ccccc4N3)sc2c1 [Compound 39, (R)-N-(6-methoxybenzo[d]thiazol-2-yl)indoline-2-carboxamide] was tested. Which UBC10 did it give?
Answer: ++ (++ indicates inhibition at 50 μM or or less)

Question: COc1ccc2nc(NC(=O)c3cccc(C)c3)sc2c1 [Compound 56, N-(6-methoxybenzo[d]thiazol-2-yl)-3-methylbenzamide] was tested. Which UBC10 did it give?
Answer: ++ (++ indicates inhibition at 50 μM or or less)

Question: Which UBC10 does the source give for O=C(Nc1nc2ccccc2s1)c1cccc(I)c1 [Compound 195, N-(benzo[d]thiazol-2-yl)-3-iodobenzamide] here?
Answer: ++ (++ indicates inhibition at 50 μM or or less)

Question: With COc1ccc2nc(NC(=O)c3ccc(NC(=O)C4CCCCC4)cc3)sc2c1 [Compound 19, 4-(cyclohexanecarboxamido)-N-(6-methoxybenzo[d]thiazol-2-yl)benzamide] as the compound, how does the UBC10 read?
Answer: ++ (++ indicates inhibition at 50 μM or or less)

Question: Which UBC10 does the source give for COc1ccc2nc(NC(=O)c3ccc4c(c3)OCCO4)sc2c1 [Compound 29, N-(6-methoxybenzo[d]thiazol-2-yl)-2,3-dihydrobenzo[b][1,4]dioxine-6-carboxamide] here?
Answer: ++ (++ indicates inhibition at 50 μM or or less)

Question: How did the UBC10 turn out when Cc1ccc(C(=O)Nc2nc3ccc(OC(F)(F)F)cc3s2)cc1 [Compound 75, 4-methyl-N-(6-(trifluoromethoxy)benzo[d]thiazol-2-yl)benzamide] was run?
Answer: −− (−− indicates marginal or no inhibition detected with this assay)

Question: For O=C(Nc1nc2ccccc2s1)c1ccccc1Cl [Compound 194, N-(benzo[d]thiazol-2-yl)-2-chlorobenzamide], which UBC10 is on record?
Answer: −− (−− indicates marginal or no inhibition detected with this assay)

Question: Which UBC10 does the source give for CCCc1ccc(C(=O)Nc2nc3ccc(OC)cc3s2)cc1 [Compound 81, N-(6-methoxybenzo[d]thiazol-2-yl)-4-propylbenzamide] here?
Answer: ++ (++ indicates inhibition at 50 μM or or less)

Question: For CCOC(=O)c1ccc(NC(=O)Nc2nc3ccc(OC)cc3s2)cc1 [Compound 126], which UBC10 is on record?
Answer: −− (−− indicates marginal or no inhibition detected with this assay)

Question: With COc1ccc2nc(N3C(=O)c4ccccc4C3=O)sc2c1 [Compound 51, 2-(6-methoxybenzo[d]thiazol-2-yl)isoindoline-1,3-dione] as the compound, how does the UBC10 read?
Answer: ++ (++ indicates inhibition at 50 μM or or less)

Question: For CN(C)c1ccccc1C(=O)Nc1nc2ccccc2s1 [Compound 223, N-(benzo[d]thiazol-2-yl)-2-(dimethylamino)benzamide], which UBC10 is on record?
Answer: −− (−− indicates marginal or no inhibition detected with this assay)

Question: With COc1ccc2nc(NC(=O)c3ccc(F)cc3)sc2c1 [Compound 57, 4-fluoro-N-(6-methoxybenzo[d]thiazol-2-yl)benzamide] as the compound, how does the UBC10 read?
Answer: ++ (++ indicates inhibition at 50 μM or or less)

Question: For COc1ccc2nc(NC(=O)C3Cc4ccccc4N3)sc2c1 (centres unmarked) [Compound 38, N-(6-methoxybenzo[d]thiazol-2-yl)indoline-2-carboxamide], which UBC10 is on record?
Answer: ++ (++ indicates inhibition at 50 μM or or less)

Question: With O=C(Nc1nc2ccccc2s1)C1CCNCC1 [Compound 225, N-(benzo[d]thiazol-2-yl)piperidine-4-carboxamide] as the compound, how does the UBC10 read?
Answer: −− (−− indicates marginal or no inhibition detected with this assay)

Question: Cc1ccc(C(=O)Nc2nc3ccc(S(N)(=O)=O)cc3s2)cc1 [Compound 73, N-[6-(aminosulfonyl)-1,3-benzothiazol-2-yl]-4-methylbenzamide] was tested. Which UBC10 did it give?
Answer: −− (−− indicates marginal or no inhibition detected with this assay)

Question: How did the UBC10 turn out when COc1ccc2nc(NC(=O)c3sccc3Cl)sc2c1 [Compound 104, 3-chloro-N-(6-methoxybenzo[d]thiazol-2-yl)thiophene-2-carboxamide] was run?
Answer: −− (−− indicates marginal or no inhibition detected with this assay)

Question: With COc1ccc2nc(NC(=O)c3sccc3Cl)sc2n1 [Compound 144, 3-chloro-N-(5-methoxythiazolo[5,4-b]pyridin-2-yl)thiophene-2-carboxamide] as the compound, how does the UBC10 read?
Answer: −− (−− indicates marginal or no inhibition detected with this assay)

Question: Which UBC10 does the source give for COc1ccc2nc(NC(=O)C34CC5CC(CC(C5)C3)C4)sc2c1 [Compound 42, N-(6-methoxy-1,3-benzothiazol-2-yl)adamantane-1-carboxamide] here?
Answer: ++ (++ indicates inhibition at 50 μM or or less)

Question: With COc1ccc2nc(NC(=O)c3ccc(C(C)=O)cc3)sc2c1 [Compound 28, 4-acetyl-N-(6-methoxybenzo[d]thiazol-2-yl)benzamide] as the compound, how does the UBC10 read?
Answer: ++ (++ indicates inhibition at 50 μM or or less)
